The values that follow are results of earlier work, collected in patent US11160798B2, “Neuroprotective CB2 receptor agonists” (THE CLEVELAND CLINIC FOUNDATION, priority 2012, dated 2021).

Molecules are shown by their SMILES.

For this data set, the target named is T1, rCB2 (Rattus norvegicus, UniProt Q9QZN9).
T1 sequence (Q9QZN9 1-360): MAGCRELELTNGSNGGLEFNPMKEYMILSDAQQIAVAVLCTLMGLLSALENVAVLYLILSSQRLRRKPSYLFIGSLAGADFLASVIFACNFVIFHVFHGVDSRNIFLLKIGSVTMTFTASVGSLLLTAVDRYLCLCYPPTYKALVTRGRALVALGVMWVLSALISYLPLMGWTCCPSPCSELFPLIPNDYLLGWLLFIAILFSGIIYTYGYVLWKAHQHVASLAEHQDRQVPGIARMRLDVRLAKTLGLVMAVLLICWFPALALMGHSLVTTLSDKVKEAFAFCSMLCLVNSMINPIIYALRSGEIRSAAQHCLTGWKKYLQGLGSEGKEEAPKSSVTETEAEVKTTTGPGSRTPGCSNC
Conditions: cited from earlier work.

A word on the EC50: it is the midpoint of the concentration-response curve. With `CC1(Cc2ccccc2)COc2cc(C(=O)N3CCCCC3)ccc21` (stereo not shown) [MDA7, 3-benzyl-3-methyl-2,3-dihydrobenzofuran-6-carboxylic acid-piperidine amide], the EC50 was 67 nM.
